In ChEMBL document CHEMBL4261511, “Synthesis, structure-activity relationship and binding mode analysis of 4-thiazolidinone derivatives as novel inhibitors of human dihydroorotate dehydrogenase” (Medchemcomm, 2017):

Legend:
[1] = target: T1, Dihydroorotate dehydrogenase (quinone), mitochondrial (Homo sapiens, UniProt Q02127); experiment: Inhibition of human DHODH at 10 uM using dihydroorotate substrate by DCIP assay relative to control
[2] = target: T1, Dihydroorotate dehydrogenase (quinone), mitochondrial; experiment: Inhibition of human DHODH using dihydroorotate substrate by DCIP assay

T1 sequence (Q02127 whole entry): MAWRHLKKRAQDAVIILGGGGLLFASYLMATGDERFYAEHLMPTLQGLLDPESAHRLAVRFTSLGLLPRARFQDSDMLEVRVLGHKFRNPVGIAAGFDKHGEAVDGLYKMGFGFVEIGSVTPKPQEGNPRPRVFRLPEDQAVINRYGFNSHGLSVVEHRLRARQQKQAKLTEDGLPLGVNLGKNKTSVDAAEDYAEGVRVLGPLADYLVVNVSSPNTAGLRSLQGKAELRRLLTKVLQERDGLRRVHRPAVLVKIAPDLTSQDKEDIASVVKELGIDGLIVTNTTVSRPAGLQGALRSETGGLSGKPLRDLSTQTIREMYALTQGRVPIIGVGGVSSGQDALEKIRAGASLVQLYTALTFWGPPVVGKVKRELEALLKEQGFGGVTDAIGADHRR

Row | inhibition [1] | IC50 [2] | Structure (SMILES)
1 | 49.4% | 10.6 µM | COC(=O)/C(C#N)=C1\SCC(=O)N1c1ccc(F)cc1
2 | 8.71% | > 10 µM | CCOC(=O)C(C(=O)OCC)=C1SCC(=O)N1c1ccccc1F
3 | 21.9% | > 10 µM | COC(=O)/C(C#N)=C1\SCC(=O)N1c1cccc2ccccc12
4 | 80.3% |  | COC(=O)/C(C#N)=C1\SCC(=O)N1c1ccc2ccccc2c1
5 | 79.1% |  | COC(=O)/C(C#N)=C1\SCC(=O)N1c1ccc(C(C)(C)C)cc1
6 | 56.9% | 8.51 µM | COC(=O)/C(C#N)=C1\SCC(=O)N1c1cccc(Cl)c1
7 | 33.9% | > 10 µM | CC(C)(C)OC(=O)/C(C#N)=C1\SCC(=O)N1c1ccccc1F
8 | 40% | > 10 µM | COC(=O)/C(C#N)=C1\SCC(=O)N1c1ccccc1Cl
9 | 34.9% | > 10 µM | COC(=O)/C(C#N)=C1\SCC(=O)N1c1ccccc1F
10 | 45.4% | > 10 µM | COC(=O)/C(C#N)=C1\SCC(=O)N1c1ccnc(Cl)c1
11 | 25.6% | > 10 µM | O=C1CSC(=S)N1c1ccc(C(F)(F)F)cc1
12 | 38.2% | > 10 µM | CCOC(=O)/C(C#N)=C1\SCC(=O)N1c1ccccc1F
13 | 74.4% | 3.03 µM | COC(=O)/C(C#N)=C1\SCC(=O)N1c1ccc(C(F)(F)F)cc1
14 | 69% | 2.68 µM | COC(=O)/C(C#N)=C1\SCC(=O)N1c1ccc(Br)cc1
15 | 34.1% | > 10 µM | COC(=O)/C(C#N)=C1\SCC(=O)N1c1cccc(F)c1
16 | 52.5% | 9.45 µM | COC(=O)/C(C#N)=C1\SCC(=O)N1c1ccc(OC)cc1
17 | 15.7% | > 10 µM | COC(=O)/C(C#N)=C1\SCCC(=O)N1c1ccccc1F
18 | 43.7% | > 10 µM | COC(=O)/C(C#N)=C1\SCC(=O)N1c1cccc(Cl)n1
19 | 14.9% | > 10 µM | N#C/C(C(=O)O)=C1/SCC(=O)N1c1ccccc1F
20 | 11.1% | > 10 µM | COC(=O)/C(C#N)=C1\SCCN1c1ccccc1F
21 | 62.9% | 4.41 µM | COC(=O)/C(C#N)=C1\SCC(=O)N1c1ccc([N+](=O)[O-])cc1
22 | 11.8% | > 10 µM | N#C/C(C(N)=O)=C1/SCC(=O)N1c1ccccc1F
23 | 33.5% | > 10 µM | CCCOC(=O)/C(C#N)=C1\SCC(=O)N1c1ccccc1F
24 | 4.27% | > 10 µM | COC(=O)C(C(=O)OC)=C1SCC(=O)N1c1ccccc1F
25 | 28.8% | > 10 µM | CCCCOC(=O)/C(C#N)=C1\SCC(=O)N1c1ccccc1F
26 | 18.4% | > 10 µM | COC(=O)/C(C#N)=C1\SCC(=O)N1c1ccccc1I
27 | 15.1% | > 10 µM | COC(=O)/C(C#N)=C1\SCC(=O)N1c1ccc(C(=O)O)cc1

Row | Structure (SMILES) | inhibition [1] | IC50 [2]
28 | COC(=O)/C(C#N)=C1\SCC(=O)N1c1ccc(OC)cc1F | 40.4% | > 10 µM
